Consider one sequence from PMC7440915, “Discovery of surrogate agonists for visceral fat Treg cells that modulate metabolic indices in vivo” (eLife, 2020).

Where no end group is shown, it is not given here.

This assay relates to vTreg53 Treg cells. Briefly: Proliferation of transferred vTreg53 Treg cells in spleen after immunization. The class given is in vivo, mouse. Conditions: CFA/Fat1562, 200 µg s.c., three days. The text has this: Figure 4. SPs induce proliferation and activation of vTreg53 Treg cells in vitro and in vivo. (A–D) Proliferation and activation of vTreg53 Treg cells by different concentrations of SPs for 3 days in vitro (n = 3). (A) Representative flow cytometric plot of cell division. (B) Summary of cell proliferation. (C) Mean flourescence intensity (MFI) of CD44 staining in clonotype^+ Treg cells. (D) MFI of CD62L staining in clonotype^+ Treg cells. (E) Proliferation of transferred CD45.2^+ vTreg53 Treg cells in the spleen of CD45.1^+ B6 recipient mice immunized s.c. with CFA or CFA/Fat1562 at day 3 (n = 3). […]
To assess early Treg proliferation following peptide stimulation in vivo, 0.4 million Treg cells were sorted from pooled Spl and LNs of 6-8wk-old male CD45.2^+ Tg^+ Foxp3-GFP^KI/y mice by Moflo, labeled by the CellTrace Violet dye (ThermoFisher Scientific), and were i.v.-injected into 6-8wk old male B6.CD45.1^+ mice. […] Proliferation of clonotype^+ Tregs in the spleen was determined three days later. […] Six weeks later, the recipient mice were immunized with 200 µg CFA/peptides s.c. on the lower back, and one week later were boosted with 100 μg IFA/peptides i.p. After another week, clonotype^+ CD45.2^+ Treg cells from the Spl/LNs or VAT of recipient mice were analyzed by flow cytometry and double-sorted for ultra-low-input RNA-seq. […]

With TMYKNPRPMAATG [Fat1562], the “proliferation of transferred clonotype^+ Treg cells in spleen” value was “robust proliferation”.
